The target in the assay is Glutamate receptor ionotropic NMDA 2B (Rattus norvegicus) (UniProt Q00960). The assay is described as follows: In vitro inhibition of NMDA responses at NR1A/2B receptor expressed in Xenopus oocytes.

Usually IC50 stands for the concentration needed to halve the response being measured. High values mean a need for much substance, low ones inhibition by little substance.

Chain of Glutamate receptor ionotropic NMDA 2B (Rattus norvegicus) (Q00960 whole entry, looked up): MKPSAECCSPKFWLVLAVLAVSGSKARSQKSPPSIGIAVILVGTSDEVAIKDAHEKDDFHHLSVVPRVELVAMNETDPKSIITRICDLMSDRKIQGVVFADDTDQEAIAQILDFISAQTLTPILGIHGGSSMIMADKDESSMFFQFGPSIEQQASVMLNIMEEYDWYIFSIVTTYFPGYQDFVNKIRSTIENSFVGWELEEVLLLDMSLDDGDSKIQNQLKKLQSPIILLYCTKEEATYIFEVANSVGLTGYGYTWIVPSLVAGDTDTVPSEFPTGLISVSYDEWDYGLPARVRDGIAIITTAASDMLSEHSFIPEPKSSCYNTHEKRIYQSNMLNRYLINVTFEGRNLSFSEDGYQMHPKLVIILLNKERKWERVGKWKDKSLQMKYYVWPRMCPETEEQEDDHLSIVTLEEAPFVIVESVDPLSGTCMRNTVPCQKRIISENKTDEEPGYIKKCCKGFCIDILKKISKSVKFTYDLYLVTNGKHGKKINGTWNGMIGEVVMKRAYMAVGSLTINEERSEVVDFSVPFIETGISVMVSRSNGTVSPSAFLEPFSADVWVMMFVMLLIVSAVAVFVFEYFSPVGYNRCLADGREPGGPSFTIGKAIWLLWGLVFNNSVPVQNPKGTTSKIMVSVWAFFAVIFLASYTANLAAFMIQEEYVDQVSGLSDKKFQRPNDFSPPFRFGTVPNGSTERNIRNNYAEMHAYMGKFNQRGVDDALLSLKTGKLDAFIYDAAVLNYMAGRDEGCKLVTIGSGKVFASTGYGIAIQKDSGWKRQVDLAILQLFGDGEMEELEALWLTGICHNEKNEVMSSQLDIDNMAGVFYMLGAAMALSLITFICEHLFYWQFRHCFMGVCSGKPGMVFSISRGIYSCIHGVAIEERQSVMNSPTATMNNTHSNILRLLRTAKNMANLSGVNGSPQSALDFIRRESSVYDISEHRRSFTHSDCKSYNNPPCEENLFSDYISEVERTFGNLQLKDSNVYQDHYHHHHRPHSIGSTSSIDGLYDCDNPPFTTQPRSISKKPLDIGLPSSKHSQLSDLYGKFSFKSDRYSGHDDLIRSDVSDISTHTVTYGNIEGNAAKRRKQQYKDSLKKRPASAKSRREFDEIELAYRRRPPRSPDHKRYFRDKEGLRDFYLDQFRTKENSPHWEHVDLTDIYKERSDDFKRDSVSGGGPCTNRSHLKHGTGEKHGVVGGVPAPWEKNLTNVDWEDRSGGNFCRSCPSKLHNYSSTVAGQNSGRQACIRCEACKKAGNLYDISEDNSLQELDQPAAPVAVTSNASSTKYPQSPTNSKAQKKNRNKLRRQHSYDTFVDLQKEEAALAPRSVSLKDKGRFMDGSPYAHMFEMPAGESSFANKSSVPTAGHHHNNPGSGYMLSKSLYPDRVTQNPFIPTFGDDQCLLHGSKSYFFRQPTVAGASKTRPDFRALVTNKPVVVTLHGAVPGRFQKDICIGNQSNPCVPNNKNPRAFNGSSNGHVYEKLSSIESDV

Regarding `Oc1ccc(OCCN2CCC(Cc3ccccc3)CC2)cc1` [4-[2-(4-Benzyl-piperidin-1-yl)-ethoxy]-phenol], the IC50 turned out to be 25 nM. That is a double-digit nanomolar value.

Values taken from BindingDB's records for doi:10.1021/jm990537r (Cocensys, 2000).
